Measured values: patent US11319299B2, “Substituted carboxamides as inhibitors of WDR5 protein-protein binding” (PROPELLON THERAPEUTICS INC., priority 2016, dated 2022)

target: WDR5 (Homo sapiens (Human), UniProt P61964); experiment: Surface Plasmon Resonance (SPR) assay, KD and residence time; assay type: binding; settings: surface plasmon resonance (SPR) assay; read-out: WDR5 binding affinity (KD)

SMILES | Kd [nM]
COc1ccc(CC(=O)N2CC=C(c3cc(NC(=O)c4c[nH]c(=O)cc4C(F)(F)F)c(N4C[C@@H](C)N(C)[C@@H](C)C4)cc3F)CC2)cc1 [Example 208, N-[4-fluoro-5-[1-[2-(4-methoxyphenyl)acetyl]-3,6-dihydro-2H-pyridin-4-yl]-2-[(3R,5S)-3,4,5-trimethylpiperazin-1-yl]phenyl]-6-oxo-4-(trifluoromethyl)-1H-pyridine-3-carboxamide] | 0.57
COCCOc1ccc(-c2cc(NC(=O)c3cn(C)c(=O)cc3C(F)(F)F)c(N3C[C@@H](C)N(C)[C@@H](C)C3)cc2F)cn1 [Example 209, N-(4-fluoro-5-(6-(2-methoxyethoxy)pyridin-3-yl)-2-((3S,5R)-3,4,5-trimethylpiperazin-1-yl)phenyl)-1-methyl-6-oxo-4-(trifluoromethyl)-1,6-dihydropyridine-3-carboxamide] | 9.53
C[C@@H]1CN(c2cc(F)c(-c3cnc(N4CCCC4)nc3)cc2NC(=O)c2cn(C)c(=O)cc2C(F)(F)F)C[C@H](C)N1C [Example 210, N-[4-fluoro-5-(2-pyrrolidin-1-ylpyrimidin-5-yl)-2-[(3R,5S)-3,4,5-trimethylpiperazin-1-yl]phenyl]-1-methyl-6-oxo-4-(trifluoromethyl)pyridine-3-carboxamide] | 3.86
C[C@@H]1CN(c2cc(F)c(-c3cnc(N4CCOCC4)nc3)cc2NC(=O)c2sccc2C(F)(F)F)C[C@H](C)N1C [Example 211, N-[4-fluoro-5-(2-morpholin-4-ylpyrimidin-5-yl)-2-[(3R,5S)-3,4,5-trimethylpiperazin-1-yl]phenyl]-3-(trifluoromethyl)thiophene-2-carboxamide] | 120
C[C@@H]1CN(c2cc(F)c(-c3cnc(N4CCOCC4)nc3)cc2NC(=O)c2cc(Cl)c(F)c(Cl)c2)C[C@H](C)N1C [Example 212, 3,5-dichloro-4-fluoro-N-[4-fluoro-5-(2-morpholin-4-ylpyrimidin-5-yl)-2-[(3R,5S)-3,4,5-trimethylpiperazin-1-yl]phenyl]benzamide] | 2.71
C[C@@H]1CN(c2cc(F)c(-c3cnc(N4CCOCC4)nc3)cc2NC(=O)c2cccc(Cl)c2Cl)C[C@H](C)N1C [Example 213, 2,3-dichloro-N-[4-fluoro-5-(2-morpholin-4-ylpyrimidin-5-yl)-2-[(3R,5S)-3,4,5-trimethylpiperazin-1-yl]phenyl]benzamide] | 6.91
C[C@@H]1CN(c2cc(F)c(-c3cnc(N(C)C)c(C#N)c3)cc2NC(=O)c2c[nH]c(=O)cc2C(F)(F)F)C[C@H](C)N1C [Example 220, N-[5-[5-cyano-6-(dimethylamino)pyridin-3-yl]-4-fluoro-2-[(3R,5S)-3,4,5-trimethylpiperazin-1-yl]phenyl]-6-oxo-4-(trifluoromethyl)-1H-pyridine-3-carboxamide] | 2.25
C[C@@H]1CN(c2cc(F)c(-c3cnc(N4CCOCC4)c(Cl)c3)cc2NC(=O)c2c[nH]c(=O)cc2C(F)(F)F)C[C@H](C)N1C [Example 222, N-[5-(5-chloro-6-morpholin-4-ylpyridin-3-yl)-4-fluoro-2-[(3R,5S)-3,4,5-trimethylpiperazin-1-yl]phenyl]-6-oxo-4-(trifluoromethyl)-1H-pyridine-3-carboxamide] | 1.34
C[C@@H]1CN(c2cc(F)c(-c3cnc4c(c3)OCCO4)cc2NC(=O)c2c[nH]c(=O)cc2C(F)(F)F)C[C@H](C)N1C [Example 223, N-[5-(2,3-dihydro-[1,4]dioxino[2,3-b]pyridin-7-yl)-4-fluoro-2-[(3R,5S)-3,4,5-trimethylpiperazin-1-yl]phenyl]-6-oxo-4-(trifluoromethyl)-1H-pyridine-3-carboxamide] | 1.63
CN1CCN(c2cc(F)c(-c3cnc(N4CCOCC4)nc3)cc2NC(=O)c2c[nH]c(=O)cc2C(F)(F)F)CC1(C)C [Example 225, N-[4-fluoro-5-(2-morpholin-4-ylpyrimidin-5-yl)-2-(3,3,4-trimethylpiperazin-1-yl)phenyl]-6-oxo-4-(trifluoromethyl)-1H-pyridine-3-carboxamide] | 3000
C[C@@H]1CN(c2cc(F)c(-c3ccnc(N4CCOCC4)c3)cc2NC(=O)c2cn(C)c(=O)cc2C(F)(F)F)C[C@H](C)N1C [Example 226, N-[4-fluoro-5-(2-morpholin-4-ylpyridin-4-yl)-2-[(3R,5S)-3,4,5-trimethylpiperazin-1-yl]phenyl]-1-methyl-6-oxo-4-(trifluoromethyl)pyridine-3-carboxamide] | 7.99
C[C@@H]1CN(c2cc(F)c(-c3ccc(N4CCCC4)cc3)cc2NC(=O)c2cn(C)c(=O)cc2C(F)(F)F)C[C@H](C)N1C [Example 227, N-[4-fluoro-5-(4-pyrrolidin-1-ylphenyl)-2-[(3R,5S)-3,4,5-trimethylpiperazin-1-yl]phenyl]-1-methyl-6-oxo-4-(trifluoromethyl)pyridine-3-carboxamide] | 9.14
C[C@@H]1CN(c2cc(F)c(-c3ccc(OCC4CC4)cc3)cc2NC(=O)c2cn(C)c(=O)cc2C(F)(F)F)C[C@H](C)N1C [Example 228, N-[5-[4-(cyclopropylmethoxy)phenyl]-4-fluoro-2-[(3R,5S)-3,4,5-trimethylpiperazin-1-yl]phenyl]-1-methyl-6-oxo-4-(trifluoromethyl)pyridine-3-carboxamide] | 7.26
C[C@@H]1CN(c2cc(F)c(-c3cnc(N4CCOCC4)nc3)cc2NC(=O)c2cccc(F)c2F)C[C@H](C)N1C [Example 229, 2,3-difluoro-N-[4-fluoro-5-(2-morpholin-4-ylpyrimidin-5-yl)-2-[(3R,5S)-3,4,5-trimethylpiperazin-1-yl]phenyl]benzamide] | 83
C[C@@H]1CN(c2cc(F)c(C3=CCN(C4CCCC4)CC3)cc2NC(=O)c2c[nH]c(=O)cc2C(F)(F)F)C[C@H](C)N1C [Example 231, N-[5-(1-cyclopentyl-3,6-dihydro-2H-pyridin-4-yl)-4-fluoro-2-[(3R,5S)-3,4,5-trimethylpiperazin-1-yl]phenyl]-6-oxo-4-(trifluoromethyl)-1H-pyridine-3-carboxamide] | 2.51
COc1ccc(C(C)N2CC=C(c3cc(NC(=O)c4c[nH]c(=O)cc4C(F)(F)F)c(N4C[C@@H](C)N(C)[C@@H](C)C4)cc3F)CC2)cc1 (stereo partly drawn) [Example 232, N-[4-fluoro-5-[1-[1-(4-methoxyphenyl)ethyl]-3,6-dihydro-2H-pyridin-4-yl]-2-[(3R,5S)-3,4,5-trimethylpiperazin-1-yl]phenyl]-6-oxo-4-(trifluoromethyl)-1H-pyridine-3-carboxamide] | 2.72
CCC(C)N1CC=C(c2cc(NC(=O)c3c[nH]c(=O)cc3C(F)(F)F)c(N3C[C@@H](C)N(C)[C@@H](C)C3)cc2F)CC1 (stereo partly drawn) [Example 233, N-[5-(1-butan-2-yl-3,6-dihydro-2H-pyridin-4-yl)-4-fluoro-2-[(3R,5S)-3,4,5-trimethylpiperazin-1-yl]phenyl]-6-oxo-4-(trifluoromethyl)-1H-pyridine-3-carboxamide] | 3.89
CN(C)[C@@H]1CCN(c2cc(F)c(-c3ccc(N4CCOCC4)nc3)cc2NC(=O)c2c[nH]c(=O)cc2C(F)(F)F)C1 [Example 234, N-[4-fluoro-5-(6-morpholin-4-ylpyridin-3-yl)-2-[(3R)-3-(dimethylamino)pyrrolidin-1-yl]phenyl]-6-oxo-4-(trifluoromethyl)-1H-pyridine-3-carboxamide] | 1.86
